These results are taken from ChEMBL document CHEMBL1132186, “Structure-based design of selective inhibitors of dihydrofolate reductase: synthesis and antiparasitic activity of 2, 4-diaminopteridine analogues with a bridged diarylamine side chain” (J Med Chem, 1999).

Test [1] deals with T1, Dihydrofolate reductase (Mycobacterium avium, UniProt O30463).
T1 sequence (O30463 whole entry): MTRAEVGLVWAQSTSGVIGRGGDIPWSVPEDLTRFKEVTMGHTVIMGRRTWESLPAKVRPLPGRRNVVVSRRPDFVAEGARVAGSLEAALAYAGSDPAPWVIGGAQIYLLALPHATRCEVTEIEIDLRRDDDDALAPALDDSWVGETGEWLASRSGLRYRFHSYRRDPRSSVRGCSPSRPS
In words: Inhibitory activity against DHFR (Dihydrofolate reductase) from Mycobacterium avium.

Test [2] has as its target T2, Dihydrofolate reductase (Rattus norvegicus, UniProt Q920D2).
T2 sequence (Q920D2 whole entry): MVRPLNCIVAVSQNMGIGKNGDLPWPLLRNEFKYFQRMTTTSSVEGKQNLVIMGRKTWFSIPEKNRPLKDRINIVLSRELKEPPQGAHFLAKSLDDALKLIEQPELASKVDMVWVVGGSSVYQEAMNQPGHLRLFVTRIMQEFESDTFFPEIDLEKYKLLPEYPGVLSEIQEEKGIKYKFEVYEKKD
In words: Inhibitory activity against DHFR (Dihydrofolate reductase) from Rat liver.

For test [3], the target named is T3, Bifunctional dihydrofolate reductase-thymidylate synthase (Toxoplasma gondii, UniProt Q07422).
T3 sequence (Q07422 whole entry): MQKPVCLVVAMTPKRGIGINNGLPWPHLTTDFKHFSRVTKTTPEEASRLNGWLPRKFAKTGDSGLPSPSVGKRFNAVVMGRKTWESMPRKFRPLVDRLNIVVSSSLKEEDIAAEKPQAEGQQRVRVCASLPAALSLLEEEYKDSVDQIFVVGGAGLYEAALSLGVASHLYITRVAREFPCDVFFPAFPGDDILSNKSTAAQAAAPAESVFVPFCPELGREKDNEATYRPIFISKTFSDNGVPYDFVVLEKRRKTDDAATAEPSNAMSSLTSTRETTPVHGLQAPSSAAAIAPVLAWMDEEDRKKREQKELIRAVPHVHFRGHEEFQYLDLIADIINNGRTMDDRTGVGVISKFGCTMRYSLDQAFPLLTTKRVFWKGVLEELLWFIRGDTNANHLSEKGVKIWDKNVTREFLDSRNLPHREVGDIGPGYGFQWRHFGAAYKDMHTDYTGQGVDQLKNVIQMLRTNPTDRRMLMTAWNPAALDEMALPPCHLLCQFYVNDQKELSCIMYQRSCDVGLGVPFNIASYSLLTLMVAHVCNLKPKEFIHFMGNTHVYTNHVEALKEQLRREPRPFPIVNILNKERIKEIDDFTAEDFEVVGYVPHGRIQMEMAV
In words: Inhibitory activity against DHFR (Dihydrofolate reductase) from Toxoplasma gondii.

The nature of test [4]: Ratio of Dihydrofolate reductase inhibitory activity in rat to Mycobacterium avium.
Test [5] concerns the target T4, Dihydrofolate reductase (Pneumocystis carinii, UniProt P16184).
T4 sequence (P16184 whole entry): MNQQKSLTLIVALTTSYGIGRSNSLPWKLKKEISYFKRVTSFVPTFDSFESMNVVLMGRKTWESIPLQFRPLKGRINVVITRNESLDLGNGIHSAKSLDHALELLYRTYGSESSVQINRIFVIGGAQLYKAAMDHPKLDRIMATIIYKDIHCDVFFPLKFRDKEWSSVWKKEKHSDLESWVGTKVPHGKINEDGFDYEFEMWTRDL
Description: Inhibitory activity against DHFR (Dihydrofolate reductase) from Pneumocystis carinii.

The nature of test [6]: Ratio of Dihydrofolate reductase inhibitory activity in rat to Toxoplasma gondii.
Test [7] can be described thus: Ratio of Dihydrofolate reductase inhibitory activity in rat to Pneumocystis carinii.

Each structure is given as a SMILES string.

As to `Nc1nc(N)c2nc(CN3c4ccccc4Cc4ccccc43)cnc2n1`, the IC50 is 17 nM on Dihydrofolate reductase [1], 27 nM against Dihydrofolate reductase [2], 29 nM in test [3] and 42 nM at Dihydrofolate reductase [5]. For the same compound, the Selectivity ratio was 1.6 in test [4], 0.93 in test [6] and 0.64 in test [7].
As for `Nc1nc(N)c2nc(CN(c3ccccc3)c3ccccc3)cnc2n1`, the IC50 against Dihydrofolate reductase [1] came to 3700 nM; on Dihydrofolate reductase [2], 4000 nM. Also, the Selectivity ratio in test [4] was determined as 1.1; in test [6], 3.1; in test [7], 0.82.
For the compound `Nc1nc(N)c2nc(CN3c4ccccc4C=Cc4ccccc43)cnc2n1`, the IC50 on Dihydrofolate reductase [1] is 12 nM; in test [3], 43 nM. Besides, the Selectivity ratio in test [4] is 367; in test [6], 102; in test [7], 21.
For `Nc1nc(N)c2nc(Cn3c4ccccc4c4ccccc43)cnc2n1`, the IC50 turned out to be 55 nM at Dihydrofolate reductase [2], 12 nM in test [3] and 100 nM on Dihydrofolate reductase [5]. Further, the Selectivity ratio in test [6] stood at 4.6; in test [7], 0.55.
For the compound `Nc1nc(N)c2nc(CN3c4ccccc4CCc4ccccc43)cnc2n1`, the Selectivity ratio in test [6] was 5.6; in test [7] it was 3.6.
Regarding `Nc1nc(N)c2nc(CN3c4ccccc4Oc4ccccc43)cnc2n1`, the values for the IC50 (against Dihydrofolate reductase [2]; in test [3]; on Dihydrofolate reductase [5]) were 13000 nM, 2200 nM and 3400 nM, respectively.
Turning to `Nc1nc(N)c2nc(CN3c4ccccc4Sc4ccccc43)cnc2n1`, the IC50 at Dihydrofolate reductase [1] was determined as 29 nM; on Dihydrofolate reductase [2], 200 nM; in test [3], 110 nM; against Dihydrofolate reductase [5], 120 nM. The Selectivity ratio was 6.9 in test [4], 1.8 in test [6] and 1.7 in test [7].
